Reference: PubChem BioAssay (NCI)
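Briefly, cells in 96-well plates were exposed to five compound concentrations for 48 h, and endpoints were estimated by linear interpolation. TGI: total growth inhibition.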

Experiments:
Test in all cases: NCI tumour cell line growth inhibition, 48 h
786-0 renal = tested on: 786-0 renal
A498 renal = tested on: A498 renal
A549 NSCLC = tested on: A549 NSCLC
ACHN renal = tested on: ACHN renal
BT-549 breast = tested on: BT-549 breast
CAKI-1 renal = tested on: CAKI-1 renal
CCRF-CEM leukemia = tested on: CCRF-CEM leukemia
COLO 205 colon = tested on: COLO 205 colon
DU-145 prostate = tested on: DU-145 prostate
EKVX NSCLC = tested on: EKVX NSCLC
HCC-2998 colon = tested on: HCC-2998 colon
HCT-116 colon = tested on: HCT-116 colon
HCT-15 colon = tested on: HCT-15 colon
HOP-62 NSCLC = tested on: HOP-62 NSCLC
HOP-92 NSCLC = tested on: HOP-92 NSCLC
HS 578T breast = tested on: HS 578T breast
HT29 colon = tested on: HT29 colon
IGROV1 ovarian = tested on: IGROV1 ovarian
K-562 leukemia = tested on: K-562 leukemia
KM12 colon = tested on: KM12 colon
M14 melanoma = tested on: M14 melanoma
MALME-3M melanoma = tested on: MALME-3M melanoma
MCF7 breast = tested on: MCF7 breast
MDA-MB-231 breast = tested on: MDA-MB-231 breast
MDA-MB-435 = tested on: MDA-MB-435
MDA-N = tested on: MDA-N
MOLT-4 leukemia = tested on: MOLT-4 leukemia
NCI-H226 lung = tested on: NCI-H226 lung
NCI-H23 lung = tested on: NCI-H23 lung
NCI-H460 lung = tested on: NCI-H460 lung
NCI-H522 lung = tested on: NCI-H522 lung
NCI/ADR-RES ovarian = tested on: NCI/ADR-RES ovarian
OVCAR-3 ovarian = tested on: OVCAR-3 ovarian
OVCAR-4 ovarian = tested on: OVCAR-4 ovarian
OVCAR-5 ovarian = tested on: OVCAR-5 ovarian
OVCAR-8 ovarian = tested on: OVCAR-8 ovarian
PC-3 prostate = tested on: PC-3 prostate
RPMI-8226 leukemia = tested on: RPMI-8226 leukemia
RXF 393 renal = tested on: RXF 393 renal
SF-268 CNS = tested on: SF-268 CNS
SF-295 CNS = tested on: SF-295 CNS
SF-539 CNS = tested on: SF-539 CNS
SK-MEL-2 melanoma = tested on: SK-MEL-2 melanoma
SK-MEL-5 melanoma = tested on: SK-MEL-5 melanoma
SK-OV-3 ovarian = tested on: SK-OV-3 ovarian
SN12C renal = tested on: SN12C renal
SNB-19 CNS = tested on: SNB-19 CNS
SNB-75 CNS = tested on: SNB-75 CNS
SR leukemia = tested on: SR leukemia
SW-620 colon = tested on: SW-620 colon
TK-10 renal = tested on: TK-10 renal
U251 CNS = tested on: U251 CNS
UACC-62 melanoma = tested on: UACC-62 melanoma
UO-31 renal = tested on: UO-31 renal
LOX IMVI melanoma = tested on: LOX IMVI melanoma
SK-MEL-28 melanoma = tested on: SK-MEL-28 melanoma
UACC-257 melanoma = tested on: UACC-257 melanoma

Cc1ccc(C(CC(=O)C(C)(C)CN2CCCCC2)SCCS(=O)(=O)O)cc1 (stereo not given) showed a TGI (786-0 renal) of 59.9 µM, a TGI (A498 renal) of 48.7 µM and a TGI (A549 NSCLC) of over 100 µM. The TGI (ACHN renal) was 70.8 µM, the TGI (BT-549 breast) was over 100 µM and the TGI (CAKI-1 renal) was 51 µM. It also gave a TGI (CCRF-CEM leukemia) of 45.9 µM, a TGI (COLO 205 colon) of 35.3 µM and a TGI (DU-145 prostate) of over 100 µM. It also gave a TGI (EKVX NSCLC) of 66.5 µM, a TGI (HCC-2998 colon) of 83.3 µM and a TGI (HCT-116 colon) of 59.2 µM. For the same molecule, the TGI (HCT-15 colon) was 72 µM, the TGI (HOP-62 NSCLC) was 78.8 µM and the TGI (HOP-92 NSCLC) was 42.3 µM. It also gave a TGI (HS 578T breast) of 68.9 µM, a TGI (HT29 colon) of 72.8 µM and a TGI (IGROV1 ovarian) of over 100 µM. It also gave a TGI (K-562 leukemia) of 51.4 µM, a TGI (KM12 colon) of over 100 µM and a TGI (M14 melanoma) of 50.1 µM. The TGI (MALME-3M melanoma) was 73.2 µM, the TGI (MCF7 breast) was 83.8 µM and the TGI (MDA-MB-231 breast) was over 100 µM. It also gave a TGI (MDA-MB-435) of 57.7 µM, a TGI (MDA-N) of over 100 µM and a TGI (MOLT-4 leukemia) of 48.7 µM. The TGI (NCI-H226 lung) was 70.5 µM, the TGI (NCI-H23 lung) was 86.5 µM and the TGI (NCI-H460 lung) was over 100 µM. The TGI (NCI-H522 lung) was 51.2 µM, the TGI (NCI/ADR-RES ovarian) was 84.9 µM and the TGI (OVCAR-3 ovarian) was 49.5 µM. The TGI (OVCAR-4 ovarian) was 84.3 µM, the TGI (OVCAR-5 ovarian) was over 100 µM and the TGI (OVCAR-8 ovarian) was 65.4 µM. The TGI (PC-3 prostate) was over 100 µM, the TGI (RPMI-8226 leukemia) was 48.1 µM and the TGI (RXF 393 renal) was 57.1 µM. For the same molecule, the TGI (SF-268 CNS) was over 100 µM, the TGI (SF-295 CNS) was 73.4 µM and the TGI (SF-539 CNS) was 49.1 µM. For the same molecule, the TGI (SK-MEL-2 melanoma) was 40.1 µM, the TGI (SK-MEL-5 melanoma) was 46.5 µM and the TGI (SK-OV-3 ovarian) was 91 µM. It also gave a TGI (SN12C renal) of 94.8 µM, a TGI (SNB-19 CNS) of over 100 µM and a TGI (SNB-75 CNS) of 96.4 µM. The TGI (SR leukemia) was 45.3 µM, the TGI (SW-620 colon) was 62.8 µM and the TGI (TK-10 renal) was 86 µM. For the same molecule, the TGI (U251 CNS) was 81.8 µM, the TGI (UACC-62 melanoma) was 46.8 µM and the TGI (UO-31 renal) was 65.3 µM.
Molecule CN1C(=O)c2c(c3c4ccccc4n(C4OC(CO)C(O)C(O)C4O)c3c3[nH]c4ccccc4c23)C1=O (stereo not given) has a TGI (786-0 renal) of 7.31 µM, a TGI (A498 renal) of 3.26 µM and a TGI (A549 NSCLC) of 29.6 µM. For the same molecule, the TGI (ACHN renal) was 6.45 µM, the TGI (BT-549 breast) was 33.8 µM and the TGI (CAKI-1 renal) was 5.3 µM. For the same molecule, the TGI (CCRF-CEM leukemia) was 1.68 µM, the TGI (COLO 205 colon) was 6.79 µM and the TGI (DU-145 prostate) was 9.66 µM. For the same molecule, the TGI (EKVX NSCLC) was 9.09 µM, the TGI (HCC-2998 colon) was 7.72 µM and the TGI (HCT-116 colon) was 2.88 µM. It also gave a TGI (HCT-15 colon) of 17.4 µM, a TGI (HOP-62 NSCLC) of 9.51 µM and a TGI (HOP-92 NSCLC) of 5.86 µM. The TGI (HS 578T breast) was 21.6 µM, the TGI (HT29 colon) was 9.52 µM and the TGI (IGROV1 ovarian) was 4.1 µM. It also gave a TGI (K-562 leukemia) of over 100 µM, a TGI (KM12 colon) of 11.3 µM and a TGI (LOX IMVI melanoma) of 5.49 µM. For the same molecule, the TGI (M14 melanoma) was 6.13 µM, the TGI (MALME-3M melanoma) was 1.44 µM and the TGI (MCF7 breast) was 18.7 µM. For the same molecule, the TGI (MDA-MB-231 breast) was 5.33 µM, the TGI (MDA-MB-435) was 6.95 µM and the TGI (MDA-N) was 7.24 µM. It also gave a TGI (MOLT-4 leukemia) of 3.57 µM, a TGI (NCI-H23 lung) of 9.6 µM and a TGI (NCI-H460 lung) of 12.1 µM. For the same molecule, the TGI (NCI-H522 lung) was 1.66 µM, the TGI (NCI/ADR-RES ovarian) was 49.9 µM and the TGI (OVCAR-3 ovarian) was 5.37 µM. The TGI (OVCAR-4 ovarian) was 6.36 µM, the TGI (OVCAR-5 ovarian) was 6.67 µM and the TGI (OVCAR-8 ovarian) was 4.19 µM. For the same molecule, the TGI (PC-3 prostate) was 9.62 µM, the TGI (RPMI-8226 leukemia) was 59.8 µM and the TGI (RXF 393 renal) was 8.96 µM. For the same molecule, the TGI (SF-268 CNS) was 4.85 µM, the TGI (SF-295 CNS) was 10.9 µM and the TGI (SF-539 CNS) was 4.7 µM. For the same molecule, the TGI (SK-MEL-2 melanoma) was 4.72 µM, the TGI (SK-MEL-28 melanoma) was 8.43 µM and the TGI (SK-MEL-5 melanoma) was 3.29 µM. It also gave a TGI (SK-OV-3 ovarian) of 10.9 µM, a TGI (SN12C renal) of 9.71 µM and a TGI (SNB-19 CNS) of 8.42 µM. It also gave a TGI (SNB-75 CNS) of 15.9 µM, a TGI (SR leukemia) of 1.2 µM and a TGI (SW-620 colon) of 16.2 µM. It also gave a TGI (TK-10 renal) of 13.7 µM, a TGI (U251 CNS) of 10.8 µM and a TGI (UACC-257 melanoma) of 7.36 µM. For the same molecule, the TGI (UACC-62 melanoma) was 4.09 µM and the TGI (UO-31 renal) was 6.6 µM.
